Experimental data as given in ChEMBL document CHEMBL5252675, “Discovery of new 5-substituted-indole-2-carboxamides as dual epidermal growth factor receptor (EGFR)/cyclin dependent kinase-2 (CDK2) inhibitors with potent antiproliferative action” (RSC Med Chem, 2023).

Tests used:
MCF-10A = assay: Cytotoxicity against human MCF-10A cells assessed as reduction in cell viability at 50 uM incubated for 4 days by MTT assay; assay type: toxicity, cell-based; settings: 96 h, time 4 day
A549 = assay: Antiproliferative activity against human A549 cells by MTT assay; assay type: functional, cell-based
MCF7 = assay: Antiproliferative activity against human MCF7 cells by MTT assay; assay type: functional, cell-based
PANC-1 = assay: Antiproliferative activity against human PANC-1 cells by MTT assay; assay type: functional, cell-based
HT-29 = assay: Antiproliferative activity against human HT-29 cells by MTT assay; assay type: functional, cell-based
[1] = biological target: Cyclin-dependent kinase 2 (Homo sapiens, UniProt P24941)
Description: Inhibition of CDK2 (unknown origin)

[2] = biological target: Epidermal growth factor receptor (Homo sapiens, UniProt P00533); assay: Inhibition of EGFR (unknown origin)
Sequence of Epidermal growth factor receptor (P00533 whole entry): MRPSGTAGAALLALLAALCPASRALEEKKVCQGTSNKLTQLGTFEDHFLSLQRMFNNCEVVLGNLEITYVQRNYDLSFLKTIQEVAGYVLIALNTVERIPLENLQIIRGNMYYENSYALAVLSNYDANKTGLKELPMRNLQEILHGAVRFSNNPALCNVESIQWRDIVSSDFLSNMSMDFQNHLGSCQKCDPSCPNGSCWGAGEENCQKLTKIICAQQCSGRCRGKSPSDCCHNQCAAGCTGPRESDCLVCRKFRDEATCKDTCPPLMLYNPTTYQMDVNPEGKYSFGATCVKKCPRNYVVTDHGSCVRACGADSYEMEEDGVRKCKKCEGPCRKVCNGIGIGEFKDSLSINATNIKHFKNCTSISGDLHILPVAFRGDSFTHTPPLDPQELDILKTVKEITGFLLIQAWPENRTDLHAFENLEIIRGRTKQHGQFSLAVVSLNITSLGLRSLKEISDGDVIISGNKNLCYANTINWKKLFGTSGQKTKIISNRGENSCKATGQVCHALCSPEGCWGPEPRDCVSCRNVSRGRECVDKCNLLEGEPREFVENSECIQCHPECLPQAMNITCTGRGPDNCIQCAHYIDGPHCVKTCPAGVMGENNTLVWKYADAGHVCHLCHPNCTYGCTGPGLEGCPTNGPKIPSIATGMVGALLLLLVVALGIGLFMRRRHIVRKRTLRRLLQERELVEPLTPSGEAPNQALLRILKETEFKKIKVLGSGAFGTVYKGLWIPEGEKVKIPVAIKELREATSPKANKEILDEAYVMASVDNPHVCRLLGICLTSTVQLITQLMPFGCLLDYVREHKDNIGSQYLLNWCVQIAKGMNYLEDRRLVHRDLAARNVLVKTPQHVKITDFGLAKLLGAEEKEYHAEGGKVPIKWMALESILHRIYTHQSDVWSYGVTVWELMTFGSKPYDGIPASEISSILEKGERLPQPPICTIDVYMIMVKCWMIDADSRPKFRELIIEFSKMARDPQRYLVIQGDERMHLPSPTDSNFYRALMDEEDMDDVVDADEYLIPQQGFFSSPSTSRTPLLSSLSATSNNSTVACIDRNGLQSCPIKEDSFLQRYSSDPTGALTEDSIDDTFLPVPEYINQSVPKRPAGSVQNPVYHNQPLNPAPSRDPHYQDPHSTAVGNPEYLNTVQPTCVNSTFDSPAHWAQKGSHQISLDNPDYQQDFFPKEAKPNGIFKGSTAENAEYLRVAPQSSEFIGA

IC50 (A549) [µM] | IC50 (MCF7) [µM] | IC50 (PANC-1) [µM] | IC50 (HT-29) [µM] | IC50 [1] [µM] | IC50 [2] [µM] | SMILES | Activity (MCF-10A) [%]
0.117 | 0.123 | 0.13 | 0.13 | – | – | CCc1c(C(=O)N2CCN(c3ccccc3)CC2)[nH]c2ccc(C(F)(F)F)cc12 | 91
0.067 | 0.074 | 0.075 | 0.079 | – | – | CCc1c(C(=O)NCCc2ccc(N3CCOCC3)cc2)[nH]c2ccc(Br)cc12 | 91
0.157 | 0.162 | 0.165 | 0.17 | – | – | CCc1c(C(=O)NCCc2ccccc2)[nH]c2ccc(C(F)(F)F)cc12 | 88
0.138 | 0.142 | 0.145 | 0.148 | – | – | CCc1c(C(=O)NCCc2ccccc2)[nH]c2ccc(Br)cc12 | 89
0.185 | 0.19 | 0.195 | 0.202 | – | – | CCc1c(C(=O)N2CCN(c3ccccc3)CC2)[nH]c2ccc(Br)cc12 | 85
– | – | – | – | 0.034 | 0.098 | Cc1c(C(=O)NCCc2ccc(F)cc2)[nH]c2cc(F)ccc12 | –
0.125 | 0.132 | 0.137 | 0.14 | – | – | CCc1c(C(=O)N2CCN(c3ccccc3)CC2)[nH]c2ccc(C)cc12 | 90
0.034 | 0.042 | 0.035 | 0.037 | 0.016 | 0.085 | CCc1c(C(=O)NCCc2ccc(N3CCOCC3)cc2)[nH]c2ccc(C)cc12 | 89
0.089 | 0.093 | 0.097 | 0.097 | – | – | CCc1c(C(=O)NCCc2ccc(N3CCCCC3)cc2)[nH]c2ccc(Br)cc12 | 90
0.051 | 0.054 | 0.059 | 0.057 | 0.033 | 0.117 | CCc1c(C(=O)NCCc2ccc(N3CCCCC3)cc2)[nH]c2ccc(C)cc12 | 89
0.064 | 0.069 | 0.072 | 0.075 | 0.046 | 0.134 | CCc1c(C(=O)NCCc2ccccc2)[nH]c2ccc(C)cc12 | 87
0.108 | 0.112 | 0.115 | 0.12 | – | – | CCc1c(C(=O)NCCc2ccc(N(C)C)cc2)[nH]c2ccc(Br)cc12 | 91
0.172 | 0.185 | 0.19 | 0.197 | – | – | CCc1c(C(=O)NCCc2ccc(N3CCCC3C)cc2)[nH]c2ccc(Br)cc12 (stereo not given) | 86
0.043 | 0.045 | 0.052 | 0.055 | 0.024 | 0.094 | CCc1c(C(=O)NCCc2ccc(N3CCOCC3)cc2)[nH]c2ccc(C(F)(F)F)cc12 | 87
0.077 | 0.082 | 0.085 | 0.087 | – | – | CCc1c(C(=O)NCCc2ccc(N3CCCCC3)cc2)[nH]c2ccc(C(F)(F)F)cc12 | 85
